Reference: US5278184A, “Synthetic derivatives of pyrrole and pyrrolidine suitable for the therapy of infections caused by rhinoviruses” (Repla Chemical Ltd., priority 1991, dated 1994)

Test system: rhinovirus serotype 30
Test: Protection of HeLa cells from rhinovirus-induced cytopathogenicity (MTT), serotype 30
Details: Enterovirus, 72 h, read-out: MIC, serotype 30

Compound	EC50 [nM]
CCOC(=O)c1ccc(OCCCCC(=O)c2ccc(Cl)s2)cc1 [Compound 360]	50
Cc1cc(CCCCCCCOc2ccc(C3=NCCO3)cc2)on1 [WIN 51711, 5-{7-[4-(4,5-dihydro-2-oxazolyl)phenoxy]heptyl}-3-methyl-isoxazole, reference compound]	1700
Cc1csc(C(=O)CCCCOc2ccc(C3=NCCO3)cc2)c1 [Compound 529, 2-[5-[4-(4,5-Dihydro-2-oxazolyl)phenoxy]pentanoyl]-4-methylthiophene]	5800

Test system: Herpes Simplex Virus type 1 (HSV-1)
Test: Viral plaque reduction, HSV-1 on Vero cells
Assay type: cell-based
Details: Human alphaherpesvirus 1, Vero, read-out: MIC, HSV-1

Compound	EC50 [nM]
CCOC(=O)c1ccc(OCCCCC(=O)c2ccc(Cl)s2)cc1 [Compound 360]	> 190000

Test system: Vesicular Stomatitis Virus (VSV)
Test: microbe, parasite or virus in culture
Assay type: cell-based
Details: Vero, read-out: MIC, VSV

Compound	EC50 [nM]
CCOC(=O)c1ccc(OCCCCC(=O)c2ccc(Cl)s2)cc1 [Compound 360]	> 190000

Test system: rhinovirus serotype 15
Test: Protection of HeLa cells from rhinovirus-induced cytopathogenicity (MTT), serotype 15
Details: Enterovirus, 72 h, read-out: MIC, serotype 15

Compound	EC50 [nM]
CCOC(=O)c1ccc(OCCCCC(=O)c2ccc(Cl)s2)cc1 [Compound 360]	1600
Cc1cc(CCCCCCCOc2ccc(C3=NCCO3)cc2)on1 [WIN 51711, 5-{7-[4-(4,5-dihydro-2-oxazolyl)phenoxy]heptyl}-3-methyl-isoxazole, reference compound]	300
Cc1csc(C(=O)CCCCOc2ccc(C3=NCCO3)cc2)c1 [Compound 529, 2-[5-[4-(4,5-Dihydro-2-oxazolyl)phenoxy]pentanoyl]-4-methylthiophene]	200

Test system: rhinovirus serotype 2
Test: Protection of HeLa cells from rhinovirus-induced cytopathogenicity (MTT), serotype 2
Details: Enterovirus, 72 h, read-out: MIC, serotype 2

Compound	EC50 [nM]
CCOC(=O)c1ccc(OCCCCC(=O)c2ccc(Cl)s2)cc1 [Compound 360]	100
Cc1cc(CCCCCCCOc2ccc(C3=NCCO3)cc2)on1 [WIN 51711, 5-{7-[4-(4,5-dihydro-2-oxazolyl)phenoxy]heptyl}-3-methyl-isoxazole, reference compound]	1700
Cc1csc(C(=O)CCCCOc2ccc(C3=NCCO3)cc2)c1 [Compound 529, 2-[5-[4-(4,5-Dihydro-2-oxazolyl)phenoxy]pentanoyl]-4-methylthiophene]	2900

Test system: rhinovirus serotype 14
Test: Protection of HeLa cells from rhinovirus-induced cytopathogenicity (MTT), serotype 14
Details: Enterovirus, 72 h, read-out: MIC, serotype 14

Compound	EC50 [nM]
CCOC(=O)c1ccc(OCCCCC(=O)c2ccc(Cl)s2)cc1 [Compound 360]	2700
Cc1cc(CCCCCCCOc2ccc(C3=NCCO3)cc2)on1 [WIN 51711, 5-{7-[4-(4,5-dihydro-2-oxazolyl)phenoxy]heptyl}-3-methyl-isoxazole, reference compound]	600
Cc1csc(C(=O)CCCCOc2ccc(C3=NCCO3)cc2)c1 [Compound 529, 2-[5-[4-(4,5-Dihydro-2-oxazolyl)phenoxy]pentanoyl]-4-methylthiophene]	1100

Test system: rhinovirus serotype 86
Test: Protection of HeLa cells from rhinovirus-induced cytopathogenicity (MTT), serotype 86
Details: Enterovirus, 72 h, read-out: MIC, serotype 86

Compound	EC50 [nM]
CCOC(=O)c1ccc(OCCCCC(=O)c2ccc(Cl)s2)cc1 [Compound 360]	300
Cc1cc(CCCCCCCOc2ccc(C3=NCCO3)cc2)on1 [WIN 51711, 5-{7-[4-(4,5-dihydro-2-oxazolyl)phenoxy]heptyl}-3-methyl-isoxazole, reference compound]	60
Cc1csc(C(=O)CCCCOc2ccc(C3=NCCO3)cc2)c1 [Compound 529, 2-[5-[4-(4,5-Dihydro-2-oxazolyl)phenoxy]pentanoyl]-4-methylthiophene]	900

Test system: HRV-14
Test: Viral plaque reduction, HRV-14 on HeLa cells
Assay type: cell-based, human rhinovirus
Details: Rhinovirus B, HRV14; Table 1 and text; 50% plaque reduction, HeLa cells, 33° C; read-out: MIC, HRV-14

Compound	EC50 [nM]
CCOC(=O)c1ccc(OCCCCC(=O)c2ccc(Cl)s2)cc1 [Compound 360]	2000

Same assay, conditions: Rhinovirus B; Table 2; 50% reduction of HRV14 plaques, HeLa cells; read-out: MIC, HRV-14

Compound	EC50 [nM]
Cc1csc(C(=O)CCCCOc2ccc(C3=NCCO3)cc2)c1 [Compound 529, 2-[5-[4-(4,5-Dihydro-2-oxazolyl)phenoxy]pentanoyl]-4-methylthiophene]	6900

Same assay, conditions: Table 1 and text; HeLa MTL / HRV-14 MIC

Compound	S.I. (Selectivity Index): MTL/MIC ratio
CCOC(=O)c1ccc(OCCCCC(=O)c2ccc(Cl)s2)cc1 [Compound 360]	> 272
Cc1cc(CCCCCCCOc2ccc(C3=NCCO3)cc2)on1 [WIN 51711, 5-{7-[4-(4,5-dihydro-2-oxazolyl)phenoxy]heptyl}-3-methyl-isoxazole, reference compound]	45

Same assay, conditions: Table 2; HeLa MTL / HRV-14 MIC

Compound	S.I. (Selectivity Index): ratio MTL/MIC
Cc1cc(CCCCCCCOc2ccc(C3=NCCO3)cc2)on1 [WIN 51711, 5-{7-[4-(4,5-dihydro-2-oxazolyl)phenoxy]heptyl}-3-methyl-isoxazole, reference compound]	45
Cc1csc(C(=O)CCCCOc2ccc(C3=NCCO3)cc2)c1 [Compound 529, 2-[5-[4-(4,5-Dihydro-2-oxazolyl)phenoxy]pentanoyl]-4-methylthiophene]	42

Test system: HeLa cells
Test: not given
Details: not given

Compound	cytotoxicity levels
CCOC(=O)c1ccc(OCCCCC(=O)c2ccc(Cl)s2)cc1 [Compound 360]	low cytotoxicity levels

Test system: HRV-14
Test: not given
Details: Table 1; literature value; read-out: MIC, HRV-14 (comparison compounds); cited from earlier work

Compound	EC50 [nM]
Cc1cc(CCCCCCCOc2ccc(C3=NCCO3)cc2)on1 [WIN 51711, 5-{7-[4-(4,5-dihydro-2-oxazolyl)phenoxy]heptyl}-3-methyl-isoxazole, reference compound]	400

Test system: rhinovirus serotype 22
Test: Protection of HeLa cells from rhinovirus-induced cytopathogenicity (MTT), serotype 22
Details: Enterovirus, 72 h, read-out: MIC, serotype 22

Compound	EC50 [nM]
CCOC(=O)c1ccc(OCCCCC(=O)c2ccc(Cl)s2)cc1 [Compound 360]	1400
Cc1cc(CCCCCCCOc2ccc(C3=NCCO3)cc2)on1 [WIN 51711, 5-{7-[4-(4,5-dihydro-2-oxazolyl)phenoxy]heptyl}-3-methyl-isoxazole, reference compound]	3500
Cc1csc(C(=O)CCCCOc2ccc(C3=NCCO3)cc2)c1 [Compound 529, 2-[5-[4-(4,5-Dihydro-2-oxazolyl)phenoxy]pentanoyl]-4-methylthiophene]	11600

Test system: Virus Vaccinicum (VV)
Test: Viral plaque reduction, VV on Vero cells
Assay type: cell-based
Details: Table 1, 50% plaque reduction, 37° C, read-out: MIC, VV

Compound	EC50 [nM]
CCOC(=O)c1ccc(OCCCCC(=O)c2ccc(Cl)s2)cc1 [Compound 360]	> 190000

Test system: Poliomyelitis Virus type 1 (Sb-1)
Test: microbe, parasite or virus in culture
Assay type: cell-based
Details: Vero, read-out: MIC, Sb-1

Compound	EC50 [nM]
CCOC(=O)c1ccc(OCCCCC(=O)c2ccc(Cl)s2)cc1 [Compound 360]	80000

Test system: not listed separately
Test: in vitro
Details: monkey, vero cells

Compound	MNTC [µM]
CCOC(=O)c1ccc(OCCCCC(=O)c2ccc(Cl)s2)cc1 [Compound 360]	> 190

Test system: rhinovirus serotype 89
Test: Protection of HeLa cells from rhinovirus-induced cytopathogenicity (MTT), serotype 89
Details: Enterovirus, 72 h, read-out: MIC, serotype 89

Compound	EC50 [nM]
CCOC(=O)c1ccc(OCCCCC(=O)c2ccc(Cl)s2)cc1 [Compound 360]	300
Cc1cc(CCCCCCCOc2ccc(C3=NCCO3)cc2)on1 [WIN 51711, 5-{7-[4-(4,5-dihydro-2-oxazolyl)phenoxy]heptyl}-3-methyl-isoxazole, reference compound]	900
Cc1csc(C(=O)CCCCOc2ccc(C3=NCCO3)cc2)c1 [Compound 529, 2-[5-[4-(4,5-Dihydro-2-oxazolyl)phenoxy]pentanoyl]-4-methylthiophene]	2900

Test system: rhinovirus serotype 21
Test: Protection of HeLa cells from rhinovirus-induced cytopathogenicity (MTT), serotype 21
Details: Enterovirus, 72 h, read-out: MIC, serotype 21

Compound	EC50 [nM]
Cc1cc(CCCCCCCOc2ccc(C3=NCCO3)cc2)on1 [WIN 51711, 5-{7-[4-(4,5-dihydro-2-oxazolyl)phenoxy]heptyl}-3-methyl-isoxazole, reference compound]	600
Cc1csc(C(=O)CCCCOc2ccc(C3=NCCO3)cc2)c1 [Compound 529, 2-[5-[4-(4,5-Dihydro-2-oxazolyl)phenoxy]pentanoyl]-4-methylthiophene]	5800

Test system: rhinoviruses
Test: not given
Details: literature; interaction with proteins of the virus capsid; cited from earlier work

Compound	inhibition of rhinoviruses
Cc1cc(CCCCCCCOc2ccc(C3=NCCO3)cc2)on1 [WIN 51711, 5-{7-[4-(4,5-dihydro-2-oxazolyl)phenoxy]heptyl}-3-methyl-isoxazole, reference compound]	inhibit a wide range of rhinoviruses

Test system: rhinovirus serotype 50
Test: Protection of HeLa cells from rhinovirus-induced cytopathogenicity (MTT), serotype 50
Details: Enterovirus, 72 h, read-out: MIC, serotype 50

Compound	EC50 [nM]
CCOC(=O)c1ccc(OCCCCC(=O)c2ccc(Cl)s2)cc1 [Compound 360]	400
Cc1cc(CCCCCCCOc2ccc(C3=NCCO3)cc2)on1 [WIN 51711, 5-{7-[4-(4,5-dihydro-2-oxazolyl)phenoxy]heptyl}-3-methyl-isoxazole, reference compound]	2000
Cc1csc(C(=O)CCCCOc2ccc(C3=NCCO3)cc2)c1 [Compound 529, 2-[5-[4-(4,5-Dihydro-2-oxazolyl)phenoxy]pentanoyl]-4-methylthiophene]	4300

Test system: not listed separately
Test: in vitro
Details: human, hela cells

Compound	MNTC [µM]
CCOC(=O)c1ccc(OCCCCC(=O)c2ccc(Cl)s2)cc1 [Compound 360]	> 545
Cc1csc(C(=O)CCCCOc2ccc(C3=NCCO3)cc2)c1 [Compound 529, 2-[5-[4-(4,5-Dihydro-2-oxazolyl)phenoxy]pentanoyl]-4-methylthiophene]	291

Test system: Coxsackie Virus B1 (Coxs)
Test: Viral plaque reduction, Coxs on Vero cells
Assay type: cell-based
Details: Table 1, 50% plaque reduction, 37° C, read-out: MIC, Coxs

Compound	EC50 [nM]
CCOC(=O)c1ccc(OCCCCC(=O)c2ccc(Cl)s2)cc1 [Compound 360]	> 190000

Test system: different rhinoviruses serotypes
Test: Protection of HeLa cells from rhinovirus-induced cytopathogenicity (MTT), all serotypes of Table 3
Details: Enterovirus, HeLa, 72 h, read-out: MIC, summary over the serotypes

Compound	EC50 [nM]
CCOC(=O)c1ccc(OCCCCC(=O)c2ccc(Cl)s2)cc1 [Compound 360]	760
Cc1cc(CCCCCCCOc2ccc(C3=NCCO3)cc2)on1 [WIN 51711, 5-{7-[4-(4,5-dihydro-2-oxazolyl)phenoxy]heptyl}-3-methyl-isoxazole, reference compound]	1200
Cc1csc(C(=O)CCCCOc2ccc(C3=NCCO3)cc2)c1 [Compound 529, 2-[5-[4-(4,5-Dihydro-2-oxazolyl)phenoxy]pentanoyl]-4-methylthiophene]	4100

Same assay, conditions: Table 3

Compound	effectiveness and selectivity as rhinoviruses inhibiting agent
CCOC(=O)c1ccc(OCCCCC(=O)c2ccc(Cl)s2)cc1 [Compound 360]	the most effective and selective

Same assay, conditions: Table 3; nine serotypes, HeLa cells

Compound	S.I.
CCOC(=O)c1ccc(OCCCCC(=O)c2ccc(Cl)s2)cc1 [Compound 360]	> 717
Cc1cc(CCCCCCCOc2ccc(C3=NCCO3)cc2)on1 [WIN 51711, 5-{7-[4-(4,5-dihydro-2-oxazolyl)phenoxy]heptyl}-3-methyl-isoxazole, reference compound]	23
Cc1csc(C(=O)CCCCOc2ccc(C3=NCCO3)cc2)c1 [Compound 529, 2-[5-[4-(4,5-Dihydro-2-oxazolyl)phenoxy]pentanoyl]-4-methylthiophene]	71
